Test results taken from ChEMBL document CHEMBL1201862, “PubChem BioAssay data set” (2004).
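Five concentrations, 48 hours, 96-well plates. GI50 is the concentration that inhibits growth by half.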 Calls of active or inactive are those of the source. Cut-off read from the data, not from the text of the source: active = GI50 up to about 1.1 µM and inactive = higher.

What was measured:
Test in all cases: DTP human tumour cell line panel, 48 h
[1] = tested on: SF-268
[2] = tested on: A498
[3] = tested on: OVCAR-4
[4] = tested on: NCI-H226
[5] = tested on: HT-29
[6] = tested on: COLO 205
[7] = tested on: Malme-3M
[8] = tested on: HCT-116
[9] = tested on: SF-539
[10] = tested on: 786-0
[11] = tested on: HOP-62
[12] = tested on: SK-MEL-2
[13] = tested on: OVCAR-8
[14] = tested on: MOLT-4
[15] = tested on: SW-620
[16] = tested on: HCT-15
[17] = tested on: HOP-92
[18] = tested on: SK-MEL-28

| Compound | GI50 [1] | GI50 [2] | GI50 [3] | GI50 [4] | GI50 [5] | GI50 [6] | GI50 [7] | GI50 [8] | GI50 [9] | GI50 [10] | GI50 [11] | GI50 [12] | GI50 [13] | GI50 [14] | GI50 [15] | GI50 [16] [µM] | GI50 [17] | GI50 [18] |
| --- | --- | --- | --- | --- | --- | --- | --- | --- | --- | --- | --- | --- | --- | --- | --- | --- | --- | --- |
| COc1cc(C(C)O)c[n+](CCC2CNc3ccccc32)c1 (configuration not stated) | 27 µM (inactive) | > 100 µM (inactive) | > 100 µM (inactive) | 73.1 µM (inactive) | 71.6 µM (inactive) | 43.3 µM (inactive) | > 100 µM (inactive) | > 100 µM (inactive) | > 100 µM (inactive) | > 100 µM (inactive) | > 100 µM (inactive) | > 100 µM (inactive) | > 100 µM (inactive) | > 100 µM (inactive) | > 100 µM (inactive) | > 100 | – | – |
| C=C(Br)C(C)(Cl)CCC(Br)C(C)(C)Br (configuration not stated) | – | – | > 100 µM (inactive) | > 100 µM (inactive) | 47.2 µM (inactive) | 57 µM (inactive) | 69 µM (inactive) | 31.9 µM (inactive) | > 100 µM (inactive) | > 100 µM (inactive) | > 100 µM (inactive) | 29.2 µM (inactive) | > 100 µM (inactive) | 31 µM (inactive) | 79.8 µM (inactive) | 67 | 32.7 µM (inactive) | – |
| Cc1ccc(S(=O)(=O)OCC23CCC(C2)C2CC23)cc1 (configuration not stated) | > 100 µM (inactive) | > 100 µM (inactive) | > 100 µM (inactive) | > 100 µM (inactive) | > 100 µM (inactive) | > 100 µM (inactive) | > 100 µM (inactive) | > 100 µM (inactive) | – | > 100 µM (inactive) | > 100 µM (inactive) | – | > 100 µM (inactive) | > 100 µM (inactive) | > 100 µM (inactive) | > 100 | 26 µM (inactive) | > 100 µM (inactive) |
| N#C/C(=C\c1ccc(O)c(O)c1)c1c(C#N)c(N)nn1-c1ccccc1 | 7.38 µM (inactive) | 2.76 µM (inactive) | 17.2 µM (inactive) | – | 22 µM (inactive) | 24.1 µM (inactive) | 4.95 µM (inactive) | 5.48 µM (inactive) | 6.64 µM (inactive) | 7.67 µM (inactive) | 10 µM (inactive) | 13 µM (inactive) | 5.82 µM (inactive) | – | 12.8 µM (inactive) | 11.7 | 8.71 µM (inactive) | 20 µM (inactive) |
| CCOC(=O)[C@H]1Nc2ccc(Cl)cc2[C@H]2c3ccccc3O[C@H]21 | > 100 µM (inactive) | – | 54.1 µM (inactive) | > 100 µM (inactive) | 99.3 µM (inactive) | > 100 µM (inactive) | – | > 100 µM (inactive) | > 100 µM (inactive) | > 100 µM (inactive) | > 100 µM (inactive) | > 100 µM (inactive) | > 100 µM (inactive) | > 100 µM (inactive) | > 100 µM (inactive) | 16.4 | – | 35.2 µM (inactive) |
| O=C(N/C(=C\c1ccc(/C=C(\NC(=O)c2ccccc2)c2nc3c(O)nc(S)nc3[nH]2)cc1)c1nc2c(O)nc(S)nc2[nH]1)c1ccccc1 | 57.9 µM (inactive) | 40.6 µM (inactive) | 25.9 µM (inactive) | – | 75 µM (inactive) | > 100 µM (inactive) | > 100 µM (inactive) | 44.8 µM (inactive) | 61.9 µM (inactive) | > 100 µM (inactive) | > 100 µM (inactive) | 8.71 µM (inactive) | 74.6 µM (inactive) | 43 µM (inactive) | 46.6 µM (inactive) | > 100 | > 100 µM (inactive) | 29.3 µM (inactive) |
| O/N=C1/CCC/C1=C\c1ccccc1 | > 100 µM (inactive) | – | > 100 µM (inactive) | > 100 µM (inactive) | > 10 µM (inactive) | > 100 µM (inactive) | > 100 µM (inactive) | > 100 µM (inactive) | > 100 µM (inactive) | > 100 µM (inactive) | > 100 µM (inactive) | > 100 µM (inactive) | > 100 µM (inactive) | 42.6 µM (inactive) | > 100 µM (inactive) | > 100 | > 100 µM (inactive) | > 100 µM (inactive) |
